Values of other authors in patent US20170341994A1, “PLANT GROWTH REGULATOR AND A METHOD OF USING THE SAME” (GLUCAN BIOLOGICAL TECHNOLOGY CO., LTD, priority 2016, published 2017).

System: tumor
Details: some studies

β-glucan
inhibition of tumor growth: more than 95%
